Patent publication US8822691B2, “Pesticidal carboxamides” (Bayer CropScience AG, priority 2009, dated 2014)
Like-named read-outs stand apart in the source and are kept apart here.

Experiments:
Format in all cases: in vivo
Spodoptera litura = assay: Test against tobacco cutworm (Spodoptera litura) larvae, leaf dip; conditions: active compound concentration of 100 ppm, third instar larvae on sweet potato leaves, after 7 days; for pest or weed control at 100 ppm: foliar, 168 h, read-out: insecticidal activity
Method: (§1) Unless not mentioned otherwise, the test solutions were prepared as follows:
(§2) Containing as solvent: Dimethylformamide, 3 parts by weight; and as emulsifier: Polyoxyethylene alkyl phenyl ether, 1 part by weight
(§3) To prepare the test solution, 1 part by weight of an active compound is mixed with the above-mentioned amount of solvent containing the above-mentioned amount of emulsifier, and the mixture is diluted with water to the desired concentration.
Leaves of sweet potato were immersed in the test solution at the appropriate concentration, and the leaves were dried in air. The leaves were then placed in a petri dish having a diameter of 9 cm, and ten Spodoptera litura at third instar larvae were released therein. The petri dishes were placed in a temperature-controlled chamber at 25° C. After 2 days and 4 days more sweet potato leaves were added. After 7 days, the number of dead larvae was counted to calculate the insecticidal activity. An insecticidal activity of 100% means that all larvae were killed, whereas an insecticidal activity of 0% means that no larva was killed. In the current test, the results of two petri dishes for each treatment were averaged.

Aulacophora femoralis = assay: Test against cucurbit leaf beetle (Aulacophora femoralis), leaf dip; conditions: active compound concentration of 500 ppm, second instar larvae on cucumber leaves, after 7 days; for pest or weed control at 500 ppm: Aulacophora, foliar, 168 h, read-out: insecticidal activity
Method: as §1, §2, §3
Leaves of cucumber were immersed in the test solution at the appropriate concentration, and the leaves were dried in air. The leaves were then put in a plastic cup containing sterilized black soil and five Aulacophora femoralis at second instar larvae were released in the cup. The cups were placed in a temperature-controlled chamber at 25° C. After 7 days, the number of dead larvae was counted, and thus the insecticidal activity was calculated. An insecticidal activity of 100% means that all larvae were killed, whereas an insecticidal activity of 0% means that no larva was killed.

Tetranychus urticae = assay: Test against two-spotted spider mite (Tetranychus urticae), spray; conditions: for pest or weed control at 500 ppm: Tetranychus urticae, 168 h, read-out: acaricidal activity
Method: as §1, §2, §3
50 to 100 adult mites of Tetranychus urticae were inoculated to leaves of kidney bean at two-leaf stage planted in a pot of 6 cm in diameter. After one day, test solution at the appropriate concentration was sprayed thereon in a sufficient amount using a spray gun. After the spraying, the plant pot was placed inside a greenhouse, and after 7 days, the acaricidal activity was calculated. An acaricidal activity of 100% means that all mites were killed, whereas an acaricidal activity of 0% means that no mite was killed.

Ctenocephalides felis = assay: Ctenocephalides felis-test (CTECFE); conditions: application rate of 100 ppm in cattle blood; adult unfed fleas; after 2 days
Method: (§4) Solvent: dimethyl sulfoxide
To produce a suitable preparation of active compound, 10 mg of active compound are dissolved in 0.5 ml solvent, and the concentrate is diluted with cattle blood to the desired concentration. Approximately 20 adult unfed (Ctenocepahlides felis) are placed in flea chambers. The blood chamber, sealed with parafilm on the bottom, are filled with cattle blood supplied with compound solution and placed on top of the flea chamber, so that the fleas are able to suck the blood. The blood chamber is heated to 37° C. whereas the flea chamber is kept at room temperature. After 2 days mortality in % is determined. 100% means that all the fleas have been killed; 0% means that none of the fleas have been killed.

Lucilia cuprina = Lucilia cuprina (48 h) larval test; conditions: application rate of 100 ppm; 1st instar larvae; after 48 hrs
Method: Species: Lucilia cuprina 1st instar larvae (age 24 hrs)
as §4
10 mg active compound are dissolve in 0.5 ml dimethyl sulfoxide. Serial dilutions are made to obtain the desired rates. Approximately 20 Lucilia cuprina 1st instar larvae are transferred into a test tube containing 1 cm^3 of minced horse meat and 0.5 ml aqueous dilution of test compound. After 48 hrs percentage of larval mortality are recorded. 100% efficacy all larvae are killed, % efficacy normally developed larvae after 48 hrs.

[1] = active compound concentration of 500 ppm, adult mites on kidney bean, after 7 days

SMILES: N#Cc1ccc2cc(C(=O)Nc3c(Br)cc(C(F)(C(F)(F)F)C(F)(F)Br)cc3Br)ccc2n1 (centres unmarked) [2-197]
- insecticidal activity (Spodoptera litura): 100%
- insecticidal activity (Aulacophora femoralis): 100%
- acaricidal activity (Tetranychus urticae; [1]): 100%

SMILES: O=C(Nc1c(Br)cc(C(F)(C(F)(F)F)C(F)(F)C(F)(F)F)cc1SC(F)(F)F)c1ccc2c(ccc[n+]2[O-])c1 (centres unmarked) [2-184]
- acaricidal activity (Tetranychus urticae; [1]): 100%

SMILES: CCc1cc(C2(F)C(F)(F)C(F)(F)C(F)(F)C(F)(F)C2(F)F)cc(C)c1NC(=O)c1ccc2nc(C#N)ccc2c1 [2-130]
- insecticidal activity (Spodoptera litura): 100%
- insecticidal activity (Aulacophora femoralis): 100%
- acaricidal activity (Tetranychus urticae; [1]): 100%

SMILES: N#Cc1ccc2cc(C(=O)Nc3c(Br)cc(C(F)(C(F)(F)F)C(F)(F)F)cc3Br)ccc2n1 [2-64]
- insecticidal activity (Spodoptera litura): 100%
- insecticidal activity (Aulacophora femoralis): 100%
- acaricidal activity (Tetranychus urticae; [1]): 100%

SMILES: N#Cc1ccc2cc(C(=O)Nc3c(Cl)cc(C(F)(C(F)(F)F)C(F)(F)F)cc3OC(F)F)ccc2n1 [Compound No. 2-231, N-[2-chloro-6-(difluoromethoxy)-4-(1,1,1,2,3,3,3-heptafluoropropan-2-yl)phenyl]-2-cyanoquinoline-6-carboxamide]
- pest or weed control at 100 ppm (Spodoptera litura): 100%
- pest or weed control at 500 ppm (Aulacophora femoralis): 100%
- pest or weed control at 500 ppm (Tetranychus urticae; [1]): 100%

SMILES: CCc1cc(C(n2cc(Cl)cn2)(C(F)(F)F)C(F)(F)F)cc(C)c1NC(=O)c1ccc2nc(C#N)ccc2c1 [2-83]
- insecticidal activity (Spodoptera litura): 100%
- insecticidal activity (Aulacophora femoralis): 100%
- acaricidal activity (Tetranychus urticae; [1]): 100%

SMILES: CCc1cc(C(F)(C(F)(F)F)C(F)(F)C(F)(F)F)cc(C)c1NC(=O)c1ccc2nc(C#N)cc(Br)c2c1 (centres unmarked) [Compound No. 2-269, 4-bromo-2-cyano-N-[2-ethyl-6-methyl-4-(1,1,1,2,3,3,4,4,4-nonafluorobutan-2-yl)phenyl]quinoline-6-carboxamide]
- pest or weed control at 100 ppm (Spodoptera litura): 100%
- pest or weed control at 500 ppm (Aulacophora femoralis): 100%
- pest or weed control at 500 ppm (Tetranychus urticae; [1]): 100%

SMILES: N#Cc1ccc2cc(C(=O)Nc3c(Br)cc(C(F)(C(F)(F)F)C(F)(F)C(F)(F)F)cc3Br)ccc2n1 (centres unmarked) [2-110]
- insecticidal activity (Spodoptera litura): 100%
- insecticidal activity (Aulacophora femoralis): 100%
- acaricidal activity (Tetranychus urticae; [1]): 100%

SMILES: CCc1cc(C(F)(C(F)(F)F)C(F)(F)F)cc(Br)c1NC(=O)c1ccc2nc(C#N)ccc2c1 [2-49]
- activity (mortality) (Ctenocephalides felis): 95%
- insecticidal activity (Spodoptera litura): 100%
- insecticidal activity (Aulacophora femoralis): 100%
- acaricidal activity (Tetranychus urticae; [1]): 100%

SMILES: Cc1cc(C(F)(C(F)(F)F)C(F)(F)F)cc(OC(F)F)c1NC(=O)c1ccc2nc(C#N)ccc2c1 [2-261]
- insecticidal activity (Spodoptera litura): 100%
- insecticidal activity (Aulacophora femoralis): 100%
- acaricidal activity (Tetranychus urticae; [1]): 100%

SMILES: CCc1cc(C(F)(C(F)(F)F)C(F)(F)F)cc(C)c1NC(=O)c1ccc2nc(C#N)ccc2c1 [2-31]
- insecticidal activity (Spodoptera litura): 100%
- insecticidal activity (Aulacophora femoralis): 100%
- acaricidal activity (Tetranychus urticae; [1]): 100%

SMILES: N#Cc1ccc2cc(C(=O)Nc3c(Br)cc(C(F)(F)F)cc3Br)ccc2n1 [2-3]
- activity (mortality) (Ctenocephalides felis): 90%
- insecticidal activity (Aulacophora femoralis): 100%
- activity (larval mortality) (Lucilia cuprina): 80%

SMILES: CCc1cc(C(F)(C(F)(F)F)C(F)(F)Br)cc(C)c1NC(=O)c1ccc2ncccc2c1 (centres unmarked) [2-192]
- insecticidal activity (Aulacophora femoralis): 100%
- acaricidal activity (Tetranychus urticae; [1]): 100%

SMILES: CCc1cc(C(F)(C(F)(F)F)C(F)(F)C(F)(F)F)cc(C)c1NC(=O)c1ccc2nc(C#N)sc2c1 (centres unmarked) [Compound No. 4-34, 2-cyano-N-[2-ethyl-6-methyl-4-(1,1,1,2,3,3,4,4,4-nonafluorobutan-2-yl)phenyl]-1,3-benzothiazole-6-carboxamide]
- pest or weed control at 100 ppm (Spodoptera litura): 100%
- pest or weed control at 500 ppm (Tetranychus urticae; [1]): 100%

SMILES: Cc1cc(C(F)(C(F)(F)F)C(F)(F)Br)cc(C)c1NC(=O)c1ccc2ncccc2c1 (centres unmarked) [2-189]
- acaricidal activity (Tetranychus urticae; [1]): 100%

SMILES: Cc1cc(C(F)(C(F)(F)F)C(F)(F)C(F)(F)F)cc(C)c1NC(=O)c1ccc2ncccc2c1 (centres unmarked) [2-85]
- acaricidal activity (Tetranychus urticae; [1]): 100%

SMILES: CCc1cc(C(F)(C(F)(F)F)C(F)(F)F)cc(CC)c1NC(=O)c1ccc2nc(C#N)ccc2c1 [2-46]
- insecticidal activity (Spodoptera litura): 100%
- insecticidal activity (Aulacophora femoralis): 100%
- acaricidal activity (Tetranychus urticae; [1]): 100%

SMILES: CCc1cc(C(F)(C(F)(F)F)C(F)(F)F)cc(C)c1NC(=O)c1ccc2cc(Br)ccc2c1 [Compound No. 1-3, 6-bromo-N-[2-ethyl-4-(1,1,1,2,3,3,3-heptafluoropropan-2-yl-2-yl)-6-methylphenyl]-2-naphthamide]
- pest or weed control at 500 ppm (Tetranychus urticae; in Phaseolus vulgaris): 100%

SMILES: N#Cc1ccc2cc(C(=O)Nc3c(Br)cc(C4(F)C(F)(F)C(F)(F)C(F)(F)C(F)(F)C4(F)F)cc3Br)ccc2n1 [2-133]
- activity (mortality) (Ctenocephalides felis): 90%
- insecticidal activity (Spodoptera litura): 100%
- insecticidal activity (Aulacophora femoralis): 100%
- acaricidal activity (Tetranychus urticae; [1]): 100%

SMILES: CCc1cc(C(F)(C(F)(F)F)C(F)(F)C(F)(F)F)cc(C)c1NC(=O)c1ccc2ncccc2c1 (centres unmarked) [2-88]
- activity (mortality) (Ctenocephalides felis): 95%
- insecticidal activity (Spodoptera litura): 100%
- insecticidal activity (Aulacophora femoralis): 100%

SMILES: CCc1cc(C(F)(C(F)(F)F)C(F)(F)C(F)(F)F)cc(C)c1NC(=O)c1ccc2ncsc2c1 (centres unmarked) [4-33]
- insecticidal activity (Spodoptera litura): 100%
- insecticidal activity (Aulacophora femoralis): 100%
- acaricidal activity (Tetranychus urticae; [1]): 100%

SMILES: N#Cc1ccc2cc(C(=O)Nc3c(Br)cc(C(F)(C(F)(F)F)C(F)(F)F)cc3C(F)(F)F)ccc2n1 [2-249]
- insecticidal activity (Spodoptera litura): 100%
- insecticidal activity (Aulacophora femoralis): 100%
- acaricidal activity (Tetranychus urticae; [1]): 100%

SMILES: CCc1cc(C(F)(C(F)(F)F)C(F)(F)F)cc(C)c1NC(=O)c1ccc2nc(Cl)ccc2c1 [2-29]
- insecticidal activity (Spodoptera litura): 100%
- insecticidal activity (Aulacophora femoralis): 100%
- acaricidal activity (Tetranychus urticae; [1]): 100%

SMILES: N#Cc1ccc2cc(C(=O)Nc3c(Br)cc(C(F)(C(F)(F)F)C(F)(F)F)cc3SC(F)(F)F)ccc2n1 [2-66]
- insecticidal activity (Spodoptera litura): 100%
- insecticidal activity (Aulacophora femoralis): 100%
- acaricidal activity (Tetranychus urticae; [1]): 100%

SMILES: O=C(Nc1c(I)cc(C(F)(C(F)(F)F)C(F)(F)C(F)(F)F)cc1SC(F)(F)F)c1ccc2c(ccc[n+]2[O-])c1 (centres unmarked) [2-187]
- acaricidal activity (Tetranychus urticae; [1]): 100%

SMILES: Cc1cc(C(F)(C(F)(F)F)C(F)(F)Br)cc(C)c1NC(=O)c1ccc2nc(C#N)ccc2c1 (centres unmarked) [2-191]
- insecticidal activity (Spodoptera litura): 100%
- insecticidal activity (Aulacophora femoralis): 100%
- acaricidal activity (Tetranychus urticae; [1]): 100%

SMILES: Cc1cc(C(F)(C(F)(F)F)C(F)(F)F)cc(Br)c1NC(=O)c1ccc2nc(C#N)ccc2c1 [2-40]
- activity (mortality) (Ctenocephalides felis): 95%
- insecticidal activity (Spodoptera litura): 100%
- insecticidal activity (Aulacophora femoralis): 100%
- acaricidal activity (Tetranychus urticae; [1]): 100%

SMILES: O=C(Nc1c(I)cc(C(F)(C(F)(F)F)C(F)(F)Br)cc1I)c1ccc2c(ccc[n+]2[O-])c1 (centres unmarked) [2-199]
- insecticidal activity (Aulacophora femoralis): 100%
- acaricidal activity (Tetranychus urticae; [1]): 100%

SMILES: N#Cc1ccc2cc(C(=O)Nc3c(Br)cc(C(F)(F)C(F)(F)F)cc3OC(F)F)ccc2n1 [2-221]
- insecticidal activity (Spodoptera litura): 100%
- insecticidal activity (Aulacophora femoralis): 100%
- acaricidal activity (Tetranychus urticae; [1]): 100%

SMILES: CCOC(c1cc(C)c(NC(=O)c2ccc3ncccc3c2)c(CC)c1)(C(F)(F)F)C(F)(F)F [2-72]
- acaricidal activity (Tetranychus urticae; [1]): 100%

SMILES: N#Cc1ccc2cc(C(=O)Nc3c(Cl)cc(C(F)(C(F)(F)F)C(F)(F)C(F)(F)F)cc3OC(F)F)ccc2n1 (centres unmarked) [2-274]
- insecticidal activity (Spodoptera litura): 100%
- insecticidal activity (Aulacophora femoralis): 100%
- acaricidal activity (Tetranychus urticae; [1]): 100%

SMILES: Cc1cc(C(F)(C(F)(F)F)C(F)(F)C(F)(F)F)cc(C)c1NC(=O)c1ccc2nc(C#N)ccc2c1 (centres unmarked) [2-87]
- insecticidal activity (Spodoptera litura): 100%
- insecticidal activity (Aulacophora femoralis): 100%
- acaricidal activity (Tetranychus urticae; [1]): 100%

SMILES: O=C(Nc1c(I)cc(C(F)(C(F)(F)F)C(F)(F)F)cc1I)c1ccc2c(ccc[n+]2[O-])c1 [2-68]
- insecticidal activity (Spodoptera litura): 100%
- insecticidal activity (Aulacophora femoralis): 100%

SMILES: CCc1cc(C(F)(C(F)(F)F)C(F)(F)Br)cc(C)c1NC(=O)c1ccc2nc(C#N)ccc2c1 (centres unmarked) [2-194]
- insecticidal activity (Spodoptera litura): 100%
- insecticidal activity (Aulacophora femoralis): 100%
- acaricidal activity (Tetranychus urticae; [1]): 100%
